Here are results for 2 compounds from EPA's ToxValDB 9.5 (doi:10.2903/j.efsa.2011.2419).

The test system of series [1] is Anas platyrhynchos. The following applies: short-term; oral; feed; mortality.
For series [2], the system named is Colinus virginianus. The following applies: acute, oral, mortality; for LC50: diet.
The test system of series [3] is Rattus norvegicus. The following applies: inhalation.
Setting [4] is: reproduction developmental, mortality.

For orientation: NOAEL means the highest dose or exposure tested at which no adverse effect was seen. In the case of `P` [Phosphine], the LC50 came out at 762 mg/kg in series [1] and 124 mg/kg in series [2]. The same compound returned an LD50 in series [2] of less than 9.2 mg/kg-day. Also, the no-observed-adverse-effect level (NOAEL) in series [3] (chronic, duration: 2 years) was found to be 1.1 mg/kg-day; in series [3] (setting [4]), 1.9 mg/kg-day; in series [3] (subchronic, duration: 90 days), 1.1 mg/kg-day.
`[Ca+2].[Ca+2].[Ca+2].[P-3].[P-3]` [Tricalcium diphosphide]: the LC50 was found to be 2040 mg/kg in series [1] and 330 mg/kg in series [2]. Besides, in series [2], the LD50 was less than 24.7 mg/kg-day. The NOAEL in series [3] (chronic, duration: 2 years) is 1.1 mg/kg-day; in series [3] (setting [4]), 1.9 mg/kg-day; in series [3] (subchronic, duration: 90 days), 1.1 mg/kg-day.
